In patent US8134015B2, “Compound inhibiting in vivo phosphorous transport and medicine containing the same” (Kyowa Hakko Kirin Co., Ltd., priority 2003, dated 2012) one finds IC50 and inhibition data, which are given here for 26 compounds.

Each structure is given as a SMILES string. pIC50: −log10 of the molar value.

One experiment has as its target T1, rat NaPi-2b (Rattus norvegicus, UniProt Q9JJ09).
T1 construct: expressed in transfected cells; host or cells: Xenopus oocytes injected with cRNA
T1 sequence (Q9JJ09 1-695): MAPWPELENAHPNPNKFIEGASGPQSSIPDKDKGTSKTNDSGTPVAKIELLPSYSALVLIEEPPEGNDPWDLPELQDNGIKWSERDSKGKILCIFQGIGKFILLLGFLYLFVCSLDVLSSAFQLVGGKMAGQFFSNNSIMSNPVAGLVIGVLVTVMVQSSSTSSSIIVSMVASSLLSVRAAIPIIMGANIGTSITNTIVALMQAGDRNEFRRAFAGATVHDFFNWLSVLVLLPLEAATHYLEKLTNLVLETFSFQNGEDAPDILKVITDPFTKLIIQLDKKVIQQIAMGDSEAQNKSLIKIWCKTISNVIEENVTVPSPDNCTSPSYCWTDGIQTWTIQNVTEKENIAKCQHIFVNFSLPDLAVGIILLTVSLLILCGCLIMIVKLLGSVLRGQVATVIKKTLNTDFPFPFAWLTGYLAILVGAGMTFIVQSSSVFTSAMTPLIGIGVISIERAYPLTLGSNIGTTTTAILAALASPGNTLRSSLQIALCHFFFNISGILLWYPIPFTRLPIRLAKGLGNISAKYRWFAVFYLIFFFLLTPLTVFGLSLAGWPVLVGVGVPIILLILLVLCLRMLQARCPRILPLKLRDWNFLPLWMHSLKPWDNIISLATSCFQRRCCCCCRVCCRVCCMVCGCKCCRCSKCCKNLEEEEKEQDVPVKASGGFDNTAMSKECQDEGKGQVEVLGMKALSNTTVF
In words: Sodium-dependent phosphate uptake of Xenopus oocytes which expressed NaPi-2b (32P). It is filed as cell-based. The note with it: Xenopus oocytes expressing rat NaPi-2b, 32P radioactive phosphorus; read-out: IC50 (phosphate uptake inhibitory activity). The method in brief: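 Oocytes injected with rat NaPi-2b cRNA, cultured 2 d, then 32P uptake measured with compound. Values: % inhibition at 300 and 100 μM, both from one inhibition curve.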
`O=C(Nc1ccccc1C(=O)N/N=C/c1cccc(F)c1)c1cccnc1` [Compound 129, N-[2-(3-Fluoro-benzylidene-hydrazinocarbonyl)-phenyl]-nicotinamide]: the pIC50 – broadly, the IC50 on a negative log10 scale, so that one unit is a factor of ten – was 4.86.
With `Cc1ccc(/C=N/NC(=O)c2cc(Cl)ccc2NC(=O)c2cccc(CN(CCO)CCO)c2)cc1` [Compound 405, 3-{[Bis-(2-hydroxy-ethyl)-amino]-methyl}-N-[4-chloro-2-(4-methyl-benzylidene-hydrazinocarbonyl)-phenyl]-benzamide], the pIC50 is 5.72.
On the same count and under the same terms, under `CCN(CC)CCN(CCN(CC)CC)Cc1cccc(C(=O)Nc2ccc(N3CCCCC3)cc2C(=O)N/N=C/c2ccc(Cl)c(C(F)(F)F)c2)c1` [Compound 909, 3-{[Bis-(2-diethylamino-ethyl)-amino]-methyl}-N-[2-(4-chloro-3-trifluoromethyl-benzylidene-hydrazinocarbonyl)-4-piperidin-1-yl-phenyl]-benzamide] stands 5.99; under `COc1ccc(/C=N/NC(=O)c2cc(N3CCOCC3)ccc2NC(=O)c2ccc(OC)c(OC)c2)cc1` [Compound 941, 3,4-Dimethoxy-N-[2-(4-methoxy-benzylidene-hydrazinocarbonyl)-4-morpholin-4-yl-phenyl]-benzamide], 5.06.
On the same count and under the same terms, under `COc1cc(OC)cc(C(=O)Nc2ccc(Br)cc2C(=O)NN=Cc2cccc(C)c2)c1` [Compound 118, N-[4-Bromo-2-(3-methyl-benzylidene-hydrazinocarbonyl)-phenyl]-3,5-dimethoxy-benzamide] stands 5.22.
Turning to `CCN(CC)CCN(C)Cc1cccc(C(=O)Nc2ccc(OCC3CCCCC3)cc2C(=O)N/N=C/c2ccc(OC)cc2)c1` [Compound 1050, N-[4-Cyclohexylmethoxy-2-(4-methoxy-benzylidene-hydrazinocarbonyl)-phenyl]-3-{[(2-diethylamino-ethyl)-methyl-amino]-methyl}-benzamide], the pIC50 was 5.85.
Still for that read-out and setting: under `Cc1ccc(/C=N/NC(=O)c2cc(Br)ccc2NC(=O)c2ccc(CNCCCN(CCO)CCO)cc2)cc1C` [Compound 300, 4-({3-[Bis-(2-hydroxy-ethyl)-amino]-propylamino}-methyl)-N-[4-bromo-2-(3,4-dimethyl-benzylidene-hydrazinocarbonyl)-phenyl]-benzamide] stands 5.72; under `O=C(Nc1ccc(Cl)cc1C(=O)N/N=C/c1ccc(Cl)c(C(F)(F)F)c1)c1cccc(CSCC(O)CO)c1` (centres unmarked) [Compound 1010, N-[4-Chloro-2-(4-chloro-3-trifluoromethyl-benzylidene-hydrazinocarbonyl)-phenyl]-3-(2,3-dihydroxy-propylsulfanylmethyl)-benzamide], 6.62.
The same measure, in the same setting: under `O=C(Nc1ccc(Br)cc1C(=O)NN=Cc1ccc(Cl)c(C(F)(F)F)c1)c1ccc(CNC(CN2CCOCC2)c2ccccc2)cc1` (centres unmarked) [Compound 747, N-[4-Bromo-2-(4-chloro-3-trifluoromethyl-benzylidene-hydrazinocarbonyl)-phenyl]-4-[(2-morpholin-4-yl-1-phenyl-ethylamino)-methyl]-benzamide] stands 4.92; under `O=C(Nc1ccc(Cl)cc1C(=O)N/N=C/c1ccc(F)cc1)c1ccccn1` [Compound 360, Pyridin-2-carboxylic acid [4-chloro-2-(4-fluoro-benzylidene-hydrazinocarbonyl)-phenyl]-amide], 6.20.
The same measure, in the same setting: under `Cc1ccc(/C=N/NC(=O)c2c(NC(=O)c3cccc(CN4CCN(CCO)CC4)c3)sc3c2CCCC3)cc1C` [Compound 621, N-[3-(3,4-Dimethyl-benzylidene-hydrazinocarbonyl)-4,5,6,7-tetrahydro-benzo[b]thiophen-2-yl]-3-[4-(2-hydroxy-ethyl)-piperazin-1-ylmethyl]-benzamide] stands more than 5.52; under `O=C(Nc1ccc(Cl)cc1C(=O)N/N=C/c1ccc(F)cc1)c1cccnc1` [Compound 185, N-[4-Chloro-2-(4-fluoro-benzylidene-hydrazinocarbonyl)-phenyl]-nicotinamide], 5.69.
As for `Cc1csc(NC(=O)c2cccc(CN3CCC(O)CC3)c2)c1C(=O)N/N=C/c1ccc(Cl)c(C(F)(F)F)c1` [Compound 597, N-[3-(4-Chloro-3-trifluoromethyl-benzylidene-hydrazinocarbonyl)-4-methyl-thiophen-2-yl]-3-(4-hydroxy-piperidin-1-ylmethyl)-benzamide], the pIC50 is 5.83.
On the same count and under the same terms, under `O=C(Nc1ccc(Cl)cc1C(=O)N/N=C/c1ccc(Cl)c(C(F)(F)F)c1)c1cccc(CSc2nc[nH]n2)c1` [Compound 393, N-[4-Chloro-2-(4-chloro-3-trifluoromethyl-benzylidene-hydrazinocarbonyl)-phenyl]-3-(1H-[1,2,4]triazol-3-ylsulfanylmethyl)-benzamide] stands 6.28; under `COc1cccc(/C=N/NC(=O)c2cc(Br)ccc2NC(=O)c2ccc(CNCCCN(C)c3ccccc3)cc2)c1` [Compound 763, N-[4-Bromo-2-(3-methoxy-benzylidene-hydrazinocarbonyl)-phenyl]-4-{[3-(methyl-phenyl-amino)-propylamino]-methyl}-benzamide], 4.95.
The same measure, in the same setting: under `Cn1cccc1/C=N/NC(=O)c1cc(Br)ccc1NC(=O)c1cccnc1` [Compound 211, N-[4-Bromo-2-(1-methyl-1H-pyrrol-2-ylmethylene-hydrazinocarbonyl)-phenyl]-nicotinamide] stands 4.16; under `O=C(Nc1sc2c(c1C(=O)N/N=C/c1ccc(F)cc1)CCCC2)c1cccc(CSCCCO)c1` [Compound 606, N-[3-(4-Fluoro-benzylidene-hydrazinocarbonyl)-4,5,6,7-tetrahydro-benzo[b]thiophen-2-yl]-3-(3-hydroxy-propylsulfanylmethyl)-benzamide], 6.00; under `Cc1ccc(/C=N/NC(=O)c2cc(Br)ccc2NC(=O)c2ccc(CN3CCN(CCO)CC3)cc2)cc1` [Compound 317, N-[4-Bromo-2-(4-methyl-benzylidene-hydrazinocarbonyl)-phenyl]-4-[4-(2-hydroxy-ethyl)-piperazin-1-ylmethyl]-benzamide], 5.30.
`COc1ccc(C(=O)Nc2scc(C)c2C(=O)N/N=C/c2cccc(F)c2)cc1OC` [Compound 517, N-[3-(3-Fluoro-benzylidene-hydrazinocarbonyl)-4-methyl-thiophen-2-yl]-3,4-dimethoxy-benzamide]: the pIC50 is 5.77.
Same read-out and setting: under `COc1ccc(/C=N/NC(=O)c2cc(N3CCCCC3)ccc2NC(=O)c2cccc(CN(CC(C)O)CC(C)O)c2)cc1` (centres unmarked) [Compound 958, 3-{[Bis-(2-hydroxy-propyl)-amino]-methyl}-N-[2-(4-methoxy-benzylidene-hydrazinocarbonyl)-4-piperidin-1-yl-phenyl]-benzamide] stands more than 6.00.

The experiment is the same for the next values; noted with them: phosphate uptake, oocytes expressing rat NaPi-2b; 300 μM, determined from inhibition curve.
`Cc1csc(C(=O)N/N=C/c2ccc(F)cc2)c1NC(=O)c1cccc(CN2CCN(CCO)CC2)c1` [Compound 534, N-[2-(4-Fluoro-benzylidene-hydrazinocarbonyl)-4-methyl-thiophen-3-yl]-3-[4-(2-hydroxy-ethyl)-piperazin-1-ylmethyl]-benzamide]: testing at 300 µM gave an inhibition of 43.8%.
With `CCSCCNCc1ccc(C(=O)Nc2ccc(Br)cc2C(=O)N/N=C/c2cccc(OC)c2)cc1` [Compound 771, N-[4-Bromo-2-(3-methoxy-benzylidene-hydrazinocarbonyl)-phenyl]-4-[(2-ethylsulfanyl-ethylamino)-methyl]-benzamide], testing at 300 µM gave an inhibition of 85.1%.
Same read-out and setting: the value for `CN(CCCNCc1ccc(C(=O)Nc2ccc(Br)cc2C(=O)N/N=C/c2ccc(F)cc2)cc1)c1ccccc1` [Compound 759, N-[4-Bromo-2-(4-fluoro-benzylidene-hydrazinocarbonyl)-phenyl]-4-{[3-(methyl-phenyl-amino)-propylamino]-methyl}-benzamide] was 63.9%.
As for `CN(CCCNCc1ccc(C(=O)Nc2ccc(Br)cc2C(=O)N/N=C/c2cccc(F)c2)cc1)c1ccccc1` [Compound 760, N-[4-Bromo-2-(3-fluoro-benzylidene-hydrazinocarbonyl)-phenyl]-4-{[3-(methyl-phenyl-amino)-propylamino]-methyl}-benzamide], the inhibition (commonly the change of the read-out against control, counted positive when it falls) at 300 µM came to 73.3%.
For `COc1cccc(/C=N/NC(=O)c2cc(Br)ccc2NC(=O)c2ccc(CN(C)CC(O)c3ccc(O)cc3)cc2)c1` (centres unmarked) [Compound 727, N-[4-Bromo-2-(3-methoxy-benzylidene-hydrazinocarbonyl)-phenyl]-4-({[2-hydroxy-2-(4-hydroxy-phenyl)-ethyl]-methyl-amino}-methyl)-benzamide], the inhibition at 300 µM is 67.7%.
The compound `Cc1ccc(/C=N/NC(=O)c2cc(N3CCCC(C(=O)O)C3)ccc2NC(=O)c2cccc(CSCCO)c2)cc1C` (centres unmarked) [Compound 934, 1-{3-(3,4-Dimethyl-benzylidene-hydrazinocarbonyl)-4-[3-(2-hydroxy-ethylsulfanylmethyl)-benzoylamino]-phenyl}-piperidine-3-carboxylic acid] returned an inhibition at 300 µM of 39.3%.
